In US11851391B2, “Antifungal compounds and methods of forming the same” (University of Kentucky Research Foundation, priority 2018, dated 2023):
Values after ≈ are worked out from the molar mass of the structure shown. Where two headings read alike, the source gives them in different places.

Experiments:
[1] = test system: C. albicans ATCC MYA-1237(R) (strain F); assay: MIC determination, in vitro antifungal assay (CLSI M27-A3); format: cell-based, Candida albicans; details: MIC-0, 48 h at 35° C.
Procedure, shortened: (§1)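 Complete-inhibition MIC (MIC-0) endpoint. Yeast inoculum of 2-4×10^3 CFU/mL in pH 7.0 MOPS-buffered RPMI 1640, incubated at 35° C following CLSI M27-A3 with modifications; final DMSO below 1.25%.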

[2] = test system: C. albicans ATCC MYA-2310(S) (strain E); assay: as above; format: cell-based, Candida albicans; details: MIC-0, 48 h at 35° C.
Procedure, shortened: as §1

[3] = test system: C. albicans ATCC 90819(R) (strain D); assay: as above; format: cell-based, Candida albicans; details: MIC-0, 48 h at 35° C.
Procedure, shortened: as §1

[4] = test system: C. albicans ATCC 64124(R) (strain B); assay: as above; format: cell-based, Candida albicans; details: strain B, MIC-0, 48 h at 35° C.
Procedure, shortened: as §1

[5] = test system: Candida parapsilosis ATCC 22019 (strain J); assay: as above; format: cell-based; details: strain J, MIC-0, 48 h at 35° C.
Procedure, shortened: as §1

[6] = test system: Candida albicans ATCC 10231(R) (strain A); assay: as above; format: cell-based; details: MIC-0 (no visible growth), 48 h at 35° C.
Procedure, shortened: as §1

[7] = test system: human lung carcinoma cell line A549; assay: In vitro cytotoxicity assay (resazurin); format: cell-based; details: 24 h
Description: The human bronchus normal cell line BEAS-2B (ATCC CRL-9609) and the human lung carcinoma cell line A549 (ATCC CRL-185) were kind gifts from the laboratories of Dr. Matthew S. Gentry (University of Kentucky, Lexington, KY, USA) and Dr. David K. Orren (University of Kentucky, Lexington, KY, USA). The mammalian cells were grown in Dulbecco's Modified Eagle's Medium (DMEM) (from ATCC) with 10% fetal bovine serum (FBS) (from ATCC) and 1% Pen/Strep (from ATCC). Cell lines were cultured at 37° C. with 5% CO2 and passaged by trypsinization with 0.05% trypsin:0.53 mM EDTA (from ATCC). Cell confluency was determined by using a Nikon Eclipse TS100 microscope (Minato, Tokyo, Japan).
Cytotoxicity assays were performed as previously described with slight modifications. A549 and BEAS-2B cells were first thawed from stocks and grown. The confluent cells were transferred to a 96-well microtiter plates at density of 3000 cells/well. The 96-well plates were incubated at 37° C. with 5% CO2 overnight. […] The stock solutions were serially diluted in 1.5 mL eppendorf tubes to achieve concentrations of 31-0.12 mg/mL. 1 μL of these 1000× compound stock solutions was then added to 999 μL of DMEM medium in 1.5 mL eppendorf tubes to obtain final concentrations of 31-0.12 μg/mL. […] The 96-well plates were further incubated for 24 h at 37° C. with 5% CO2. To evaluate cell survival, each well was treated with 10 μL (25 mg/L) of resazurin sodium salt (Sigma-Aldrich, St. Louis, MO, USA) and incubated for another 6 h. Metabolically active cells can convert resazurin to the highly fluorescent dye, resorufin, and be detected at A560 excitation and A590 emission using a SpectraMax M5 plate reader (Molecular Devices, San Jose, CA, USA). […] The percentage survival rates were calculated by using the following formula: % cell survival=[(fluorescence of sample)−(fluorescence of background)]×100/[(fluorescence of negative control)−(fluorescence of background)]. Experiments were done in duplicate.

[8] = Candida albicans, 48 h, read-out: MIC
[9] = Candida albicans, ATCC90819, 48 h, read-out: MIC
[10] = Candida albicans, ATCC64124, 48 h, read-out: MIC
[11] = Lodderomyces parapsilosis, ATCC22019, 48 h, read-out: MIC
[12] = Candida albicans, ATCC10231, 48 h, read-out: MIC
[13] = A549 (printed A459) at 31 μg/mL

C(=N\Nc1ccccc1)/c1ccc(-c2cccc(/C=N/Nc3ccccc3)c2)cc1 [Compound 7a]
MIC [1, 8]: 31.3 µg/mL (≈ 80.2 µM) | MIC [2, 8]: 31.3 µg/mL (≈ 80.2 µM) | MIC [3, 9]: 31.3 µg/mL (≈ 80.2 µM) | MIC [4, 10]: 31.3 µg/mL (≈ 80.2 µM) | MIC [5, 11]: > 31.3 µg/mL | MIC [6, 12]: 1.95 to 3.9 µg/mL (≈ 4.99 to 9.99 µM) | MIC [6]: 1.95 µg/mL (≈ 4.99 µM)

Fc1cccc(N/N=C/c2ccc(-c3cccc(/C=N/Nc4cccc(F)c4)c3)cc2)c1 [Compound 12a]
MIC [1, 8]: 7.8 to 15.6 µg/mL (≈ 18.3 to 36.6 µM) | MIC [1]: 15.6 µg/mL (≈ 36.6 µM) | MIC [2, 8]: > 31.3 µg/mL | MIC [3, 9]: 7.8 to 15.6 µg/mL (≈ 18.3 to 36.6 µM) | MIC [3]: 15.6 µg/mL (≈ 36.6 µM) | MIC [4, 10]: > 31.3 µg/mL | MIC [5, 11]: 31.3 µg/mL (≈ 73.4 µM) | MIC [6, 12]: 1.95 to 3.9 µg/mL (≈ 4.57 to 9.14 µM) | MIC [6]: 1.95 µg/mL (≈ 4.57 µM) | toxicity (in words) ([7]; A549 at 15.5 μg/mL): no toxicity

COc1ccc(N/N=C/c2ccc(-c3cccc(/C=N/Nc4ccc(OC)cc4)c3)cc2)cc1 [Compound 15a]
MIC [1, 8]: 1.95 to 3.9 µg/mL (≈ 4.33 to 8.66 µM) | MIC [1]: 3.9 µg/mL (≈ 8.66 µM) | MIC [3, 9]: 1.95 to 3.9 µg/mL (≈ 4.33 to 8.66 µM) | MIC [3]: 3.9 µg/mL (≈ 8.66 µM) | MIC [4, 10]: 15.6 µg/mL (≈ 34.6 µM) | MIC [5, 11]: > 31.3 µg/mL | MIC [6, 12]: 1.95 to 3.9 µg/mL (≈ 4.33 to 8.66 µM) | MIC [6]: 1.95 µg/mL (≈ 4.33 µM) | toxicity (in words) [7, 13]: generally non-toxic

COc1ccc(N/N=C/c2ccc(-c3ccc(/C=N/Nc4ccc(OC)cc4)cc3)cc2)cc1 [Compound 15b]
MIC [1, 8]: 7.8 to 15.6 µg/mL (≈ 17.3 to 34.6 µM) | MIC [1]: 15.6 µg/mL (≈ 34.6 µM) | MIC [2, 8]: 3.9 µg/mL (≈ 8.66 µM) | MIC [2]: 3.9 µg/mL (≈ 8.66 µM) | MIC [3, 9]: 7.8 to 15.6 µg/mL (≈ 17.3 to 34.6 µM) | MIC [3]: 7.8 µg/mL (≈ 17.3 µM) | MIC [4, 10]: 3.9 µg/mL (≈ 8.66 µM) | MIC [4]: 3.9 µg/mL (≈ 8.66 µM) | MIC [5, 11]: 7.8 to 15.6 µg/mL (≈ 17.3 to 34.6 µM) | MIC [5]: 15.6 µg/mL (≈ 34.6 µM) | MIC [6, 12]: 7.8 to 15.6 µg/mL (≈ 17.3 to 34.6 µM) | MIC [6]: 7.8 µg/mL (≈ 17.3 µM) | toxicity (in words) [7, 13]: generally non-toxic

Fc1ccc(N/N=C/c2ccc(-c3cccc(/C=N/Nc4ccc(F)cc4)c3)cc2)cc1 [Compound 17a]
MIC [1, 8]: 15.6 µg/mL (≈ 36.6 µM) | MIC [2, 8]: 7.8 µg/mL (≈ 18.3 µM) | MIC [3, 9]: > 31.3 µg/mL | MIC [4, 10]: 15.6 µg/mL (≈ 36.6 µM) | MIC [5, 11]: 31.3 µg/mL (≈ 73.4 µM) | MIC [6, 12]: 1.95 to 3.9 µg/mL (≈ 4.57 to 9.14 µM) | MIC [6]: 1.59 to 3.9 µg/mL | toxicity (in words) [7, 13]: generally non-toxic

Fc1ccc(N/N=C/c2ccc(-c3ccc(/C=N/Nc4ccc(F)cc4)cc3)cc2)cc1 [Compound 17b]
MIC [1, 8]: 7.8 to 15.6 µg/mL (≈ 18.3 to 36.6 µM) | MIC [1]: 7.8 µg/mL (≈ 18.3 µM) | MIC [2, 8]: 7.8 to 15.6 µg/mL (≈ 18.3 to 36.6 µM) | MIC [2]: 15.6 µg/mL (≈ 36.6 µM) | MIC [3, 9]: 31.3 µg/mL (≈ 73.4 µM) | MIC [4, 10]: 7.8 to 15.6 µg/mL (≈ 18.3 to 36.6 µM) | MIC [4]: 15.6 µg/mL (≈ 36.6 µM) | MIC [5, 11]: 31.3 µg/mL (≈ 73.4 µM) | MIC [6, 12]: 7.8 to 15.6 µg/mL (≈ 18.3 to 36.6 µM) | MIC [6]: 7.8 µg/mL (≈ 18.3 µM)

C/C(=N\Nc1ccc(F)cc1)c1ccc(-c2ccc(/C(C)=N/Nc3ccc(F)cc3)cc2)cc1 [Compound 17c, 4,4′-bis((E)-1-(2-(4-fluorophenyl)hydrazono)ethyl)-1,1′-biphenyl]
MIC [1, 8]: 7.8 µg/mL (≈ 17.2 µM) | MIC [2, 8]: 1.95 to 3.9 µg/mL (≈ 4.29 to 8.58 µM) | MIC [2]: 1.95 µg/mL (≈ 4.29 µM) | MIC [3, 9]: 7.8 µg/mL (≈ 17.2 µM) | MIC [4, 10]: 1.95 to 3.9 µg/mL (≈ 4.29 to 8.58 µM) | MIC [4]: 3.9 µg/mL (≈ 8.58 µM) | MIC [5, 11]: 15.6 µg/mL (≈ 34.3 µM) | MIC [6, 12]: 1.95 to 3.9 µg/mL (≈ 4.29 to 8.58 µM) | MIC [6]: 1.95 µg/mL (≈ 4.29 µM) | toxicity (in words) ([7]; A549 at 15.5 μg/mL): no toxicity

Fc1ccc(N/N=C/c2ccc(-c3cccc(/C=N/Nc4ccc(F)cc4F)c3)cc2)c(F)c1 [Compound 20a]
MIC [1, 8]: 7.8 µg/mL (≈ 16.9 µM) | MIC [2, 8]: 15.6 µg/mL (≈ 33.7 µM) | MIC [3, 9]: 15.6 µg/mL (≈ 33.7 µM) | MIC [4, 10]: 7.8 µg/mL (≈ 16.9 µM) | MIC [5, 11]: 31.3 µg/mL (≈ 67.7 µM) | MIC [6, 12]: 1.95 to 3.9 µg/mL (≈ 4.22 to 8.43 µM) | MIC [6]: 3.9 µg/mL (≈ 8.43 µM) | toxicity (in words) ([7]; A549 at 15.5 μg/mL): no toxicity
